Here are results for three molecules from US9060946B2, “Topical skin care formulations” (priority 2013, dated 2015).

The conditions of series [1]: background; without the whiteness-preserving ingredients; cited from earlier work.
In series [2] the test system is skin. The settings on record: known sunless tanning ingredients; acts on dead skin cells; cited from earlier work.
In series [3] the test system is skin. The experiment in a line: Tanning of the skin after topical application. The format is in vivo.
Excerpt: The tan will appear once it reaches the skin's cellular level whether a person is in the light or in total darkness.
The tanning process will continue, in the sun, in the shade, or total darkness, regardless of the environmental conditions. […] Also, the tan can be maintained for longer periods of time by daily use of a maintenance formula containing 3 wt % CoQ10 and 3 wt % vanillin in a lime emulsion.

As to `COC1=C(OC)C(=O)C(C/C=C(\C)CC/C=C(\C)CC/C=C(\C)CC/C=C(\C)CC/C=C(\C)CC/C=C(\C)CC/C=C(\C)CC/C=C(\C)CC/C=C(\C)CCC=C(C)C)=C(C)C1=O` [CoQ10, coenzyme Q10], in series [1], the “color behaviour in aqueous emulsion products” value is on record as “degrades the formulation into various shades of orange or brown”.
As for `O=C(CO)[C@H](O)CO` [erythrulose, D-erythrulose], the “how long the tan color lasts” value in the series with skin [2] is recorded as “only a few days”.
Consider `COc1cc(C=O)ccc1O` [vanillin], for which the “tanning / color development continues for up to” value in the series on skin [3] is on record as “up to 24 hours”. Further, in series [1], the “color behaviour in aqueous emulsion products” value was “quickly degrades into various shades of brown”.
